{"source": "patent US11214594B2", "about": "“Antimicrobial peptide having synergistic antibacterial effect with antibiotics on multidrug resistant bacteria, and use thereof” (priority 2016, dated 2022)", "key": {"[1]": {"system": "E. coli", "experiment": "microbe, parasite or virus in culture", "format": "cell-based, Escherichia coli", "details": "16 h", "outline": "(§1)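 Broth microdilution in MH medium: bacterial strains diluted to 2×10^6 CFU were mixed with equal volumes of peptide serially diluted twofold in MH medium.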"}, "[2]": {"system": "MDREC 1229", "experiment": "microbe, parasite or virus in culture", "format": "cell-based, Escherichia coli", "outline": "as §1"}, "[3]": {"system": "A. baumannii", "experiment": "MIC of antibiotic during combined treatment with antimicrobial peptide", "format": "cell-based, Acinetobacter baumannii", "details": "for Antibiotic MIC, Erythromycin / Antibiotic MIC, Linezolid / Antibiotic MIC, Vancomycin: A. baumannii", "outline": "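MIC values for mixed peptide plus antibiotic solutions were measured in MH medium.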"}, "[4]": {"system": "S. epidermidis", "experiment": "microbe, parasite or virus in culture", "format": "cell-based, Staphylococcus epidermidis", "outline": "as §1"}, "[5]": {"system": "MDREC 1229", "experiment": "MIC of antibiotic during combined treatment with antimicrobial peptide", "format": "cell-based, Escherichia coli", "outline": "(§2)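 Antibiotic MIC came from antibiotic dilutions added to bacteria (2×10^6 CFU/ml, MH medium) already combined with peptide serially diluted 2:1 from its own MIC. Swapping the roles of the two agents gave the peptide MIC.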"}, "[6]": {"system": "P. aeruginosa", "experiment": "microbe, parasite or virus in culture", "format": "cell-based, Pseudomonas aeruginosa", "outline": "as §1"}, "[7]": {"system": "B. subtilis", "experiment": "microbe, parasite or virus in culture", "format": "cell-based, Bacillus subtilis", "outline": "as §1"}, "[8]": {"system": "MDRAB 12035", "experiment": "MIC of antimicrobial peptide during combined treatment with antibiotic", "format": "cell-based, Acinetobacter baumannii", "outline": "as §2"}, "[9]": {"details": "combined with peptide at 2 μg/ml"}, "[10]": {"details": "combined with peptide at 4 μg/ml"}, "[11]": {"details": "combined with peptide at 6 μg/ml"}, "[12]": {"details": "combined with peptide at 8 μg/ml"}, "[13]": {"details": "combined with peptide at 16 μg/ml"}, "[14]": {"details": "combined with peptide at 32 μg/ml"}, "[15]": {"details": "combined with peptide at 64 μg/ml"}, "[16]": {"details": "peptide treatment concentration 1 μg/ml"}, "[17]": {"details": "peptide treatment concentration 2 μg/ml"}, "[18]": {"details": "peptide treatment concentration 4 μg/ml"}, "[19]": {"details": "peptide treatment concentration 6 μg/ml"}, "[20]": {"details": "peptide treatment concentration 8 μg/ml"}, "[21]": {"details": "peptide treatment concentration 16 μg/ml"}, "[22]": {"details": "peptide treatment concentration 32 μg/ml"}, "[23]": {"details": "peptide treatment concentration 64 μg/ml"}}, "note": "Where a SMILES comes first, the peptide text is derived from it. [ ]: non-standard residue; d: D form.", "data": [{"smiles": "CC[C@H](C)[C@H](NC(=O)[C@H](CCCCN)NC(=O)[C@H](Cc1c[nH]c2ccccc12)NC(=O)[C@@H](N)CCCNC(=N)N)C(=O)N[C@@H](Cc1ccccc1)C(=O)N[C@@H](CCCCN)C(=O)N[C@@H](CCCCN)C(=O)N[C@H](C(=O)N[C@H](CC(C)C)C(=O)N[C@@H](CCCCN)C(=O)N[C@@H](CC(C)C)C(=O)N[C@@H](CC(C)C)C(=O)N[C@@H](Cc1c[nH]cn1)C(=O)N[C@@H](CCC(=O)O)C(=O)N[C@@H](C)C(=O)N[C@@H](CCCCN)C(=O)N[C@@H](CCCCN)C(=O)N[C@@H](Cc1c[nH]c2ccccc12)C(N)=O)[C@@H](C)CC", "note": "[PapMA-24, RWK IFK KIl KLL HEA KKW-NH2] (H-RWKIFKKI[dL]KLLHEAKKW-NH2; N-terminus assumed)", "values": [{"measurement": "Minimal inhibitory concentration MIC", "setting": "[1]", "value": 32, "unit": "µg/mL"}, {"measurement": "Minimal inhibitory concentration MIC", "setting": "[2]", "value": 32, "unit": "µg/mL"}, {"measurement": "Peptide MIC, peptide alone", "setting": "[2]", "value": 32, "unit": "µg/mL"}, {"measurement": "Synergistic effect of antibacterial activity with existing antibiotics compared with PapMA-1", "setting": "[3]; A. baumannii and MDRAB 12035", "value": "level similar to that of PapMA-1 peptide"}, {"measurement": "Antibiotic MIC, Erythromycin", "setting": "[3]; [9]", "value": 32, "unit": "µg/mL"}, {"measurement": "Antibiotic MIC, Linezolid", "setting": "[3]; [9]", "value": ">128", "unit": "µg/mL"}, {"measurement": "Antibiotic MIC, Vancomycin", "setting": "[3]; [9]", "value": 128, "unit": "µg/mL"}, {"measurement": "Antibiotic MIC, Erythromycin", "setting": "[3]; [10]", "value": 8, "unit": "µg/mL"}, {"measurement": "Antibiotic MIC, Linezolid", "setting": "[3]; [10]", "value": 64, "unit": "µg/mL"}, {"measurement": "Antibiotic MIC, Vancomycin", "setting": "[3]; [10]", "value": 64, "unit": "µg/mL"}, {"measurement": "Antibiotic MIC, Erythromycin", "setting": "[3]; [11]", "value": 2, "unit": "µg/mL"}, {"measurement": "Antibiotic MIC, Linezolid", "setting": "[3]; [11]", "value": 8, "unit": "µg/mL"}, {"measurement": "Antibiotic MIC, Vancomycin", "setting": "[3]; [11]", "value": 16, "unit": "µg/mL"}, {"measurement": "Antibiotic MIC, Erythromycin", "setting": "[3]; [12]", "value": 0.5, "unit": "µg/mL"}, {"measurement": "Antibiotic MIC, Linezolid", "setting": "[3]; [12]", "value": 4, "unit": "µg/mL"}, {"measurement": "Antibiotic MIC, Vancomycin", "setting": "[3]; [12]", "value": 8, "unit": "µg/mL"}, {"measurement": "Antibiotic MIC, Erythromycin", "setting": "[3]; [13]", "value": 0, "unit": "µg/mL"}, {"measurement": "Antibiotic MIC, Linezolid", "setting": "[3]; [13]", "value": 0, "unit": "µg/mL"}, {"measurement": "Antibiotic MIC, Vancomycin", "setting": "[3]; [13]", "value": 0, "unit": "µg/mL"}, {"measurement": "Antibiotic MIC, Erythromycin", "setting": "[3]; [14]", "value": 0, "unit": "µg/mL"}, {"measurement": "Antibiotic MIC, Linezolid", "setting": "[3]; [14]", "value": 0, "unit": "µg/mL"}, {"measurement": "Antibiotic MIC, Vancomycin", "setting": "[3]; [14]", "value": 0, "unit": "µg/mL"}, {"measurement": "Antibiotic MIC, Erythromycin", "setting": "[3]; [15]", "value": 0, "unit": "µg/mL"}, {"measurement": "Antibiotic MIC, Linezolid", "setting": "[3]; [15]", "value": 0, "unit": "µg/mL"}, {"measurement": "Antibiotic MIC, Vancomycin", "setting": "[3]; [15]", "value": 0, "unit": "µg/mL"}, {"measurement": "Minimal inhibitory concentration MIC", "setting": "[4]", "value": ">128", "unit": "µg/mL"}, {"measurement": "Antibiotic MIC, Erythromycin", "setting": "[5]; [16]", "value": 128, "unit": "µg/mL"}, {"measurement": "Antibiotic MIC, Linezolid", "setting": "[5]; [16]", "value": ">128", "unit": "µg/mL"}, {"measurement": "Antibiotic MIC, Vancomycin", "setting": "[5]; [16]", "value": ">128", "unit": "µg/mL"}, {"measurement": "Antibiotic MIC, Erythromycin", "setting": "[5]; [17]", "value": 64, "unit": "µg/mL"}, {"measurement": "Antibiotic MIC, Linezolid", "setting": "[5]; [17]", "value": 128, "unit": "µg/mL"}, {"measurement": "Antibiotic MIC, Vancomycin", "setting": "[5]; [17]", "value": ">128", "unit": "µg/mL"}, {"measurement": "Antibiotic MIC, Erythromycin", "setting": "[5]; [18]", "value": 32, "unit": "µg/mL"}, {"measurement": "Antibiotic MIC, Linezolid", "setting": "[5]; [18]", "value": 64, "unit": "µg/mL"}, {"measurement": "Antibiotic MIC, Vancomycin", "setting": "[5]; [18]", "value": ">128", "unit": "µg/mL"}, {"measurement": "Antibiotic MIC, Erythromycin", "setting": "[5]; [19]", "value": 8, "unit": "µg/mL"}, {"measurement": "Antibiotic MIC, Linezolid", "setting": "[5]; [19]", "value": 64, "unit": "µg/mL"}, {"measurement": "Antibiotic MIC, Vancomycin", "setting": "[5]; [19]", "value": 64, "unit": "µg/mL"}, {"measurement": "Antibiotic MIC, Erythromycin", "setting": "[5]; [20]", "value": 2, "unit": "µg/mL"}, {"measurement": "Antibiotic MIC, Linezolid", "setting": "[5]; [20]", "value": 32, "unit": "µg/mL"}, {"measurement": "Antibiotic MIC, Vancomycin", "setting": "[5]; [20]", "value": 32, "unit": "µg/mL"}, {"measurement": "Antibiotic MIC, Erythromycin", "setting": "[5]; [21]", "value": 1, "unit": "µg/mL"}, {"measurement": "Antibiotic MIC, Linezolid", "setting": "[5]; [21]", "value": 8, "unit": "µg/mL"}, {"measurement": "Antibiotic MIC, Vancomycin", "setting": "[5]; [21]", "value": 16, "unit": "µg/mL"}, {"measurement": "Antibiotic MIC, Erythromycin", "setting": "[5]; [22]", "value": 0, "unit": "µg/mL"}, {"measurement": "Antibiotic MIC, Linezolid", "setting": "[5]; [22]", "value": 0, "unit": "µg/mL"}, {"measurement": "Antibiotic MIC, Vancomycin", "setting": "[5]; [22]", "value": 0, "unit": "µg/mL"}, {"measurement": "Antibiotic MIC, Erythromycin", "setting": "[5]; [23]", "value": 0, "unit": "µg/mL"}, {"measurement": "Antibiotic MIC, Linezolid", "setting": "[5]; [23]", "value": 0, "unit": "µg/mL"}, {"measurement": "Antibiotic MIC, Vancomycin", "setting": "[5]; [23]", "value": 0, "unit": "µg/mL"}, {"measurement": "Minimal inhibitory concentration MIC", "setting": "[6]", "value": 64, "unit": "µg/mL"}, {"measurement": "Minimal inhibitory concentration MIC", "setting": "[7]", "value": ">128", "unit": "µg/mL"}, {"measurement": "Peptide MIC during treatment with erythromycin", "setting": "[8]; erythromycin 4 μg/ml (Conc./MIC 1/8)", "value": 8, "unit": "µg/mL"}, {"measurement": "Peptide MIC during treatment with erythromycin", "setting": "[8]; erythromycin 8 μg/ml (Conc./MIC 1/4)", "value": 8, "unit": "µg/mL"}, {"measurement": "Peptide MIC during treatment with erythromycin", "setting": "[8]; erythromycin 16 μg/ml (Conc./MIC 1/2)", "value": 4, "unit": "µg/mL"}, {"measurement": "Peptide MIC during treatment with erythromycin", "setting": "[8]; erythromycin 32 μg/ml (Conc./MIC 1)", "value": 0, "unit": "µg/mL"}, {"measurement": "Peptide MIC during treatment with linezolid", "setting": "[8]; linezolid 64 μg/ml (Conc./MIC 1/8)", "value": 4, "unit": "µg/mL"}, {"measurement": "Peptide MIC during treatment with linezolid", "setting": "[8]; linezolid 512 μg/ml (Conc./MIC 1)", "value": 0, "unit": "µg/mL"}]}]}
